# Measured values published in patent publication US20170037028A1 (BAYER PHARMA AKTIENGESELLSCHAFT, priority 2013, published 2017).
# Target: T1, GLUT1 (Homo sapiens, UniProt P11166)
# T1 sequence (P11166 1-492): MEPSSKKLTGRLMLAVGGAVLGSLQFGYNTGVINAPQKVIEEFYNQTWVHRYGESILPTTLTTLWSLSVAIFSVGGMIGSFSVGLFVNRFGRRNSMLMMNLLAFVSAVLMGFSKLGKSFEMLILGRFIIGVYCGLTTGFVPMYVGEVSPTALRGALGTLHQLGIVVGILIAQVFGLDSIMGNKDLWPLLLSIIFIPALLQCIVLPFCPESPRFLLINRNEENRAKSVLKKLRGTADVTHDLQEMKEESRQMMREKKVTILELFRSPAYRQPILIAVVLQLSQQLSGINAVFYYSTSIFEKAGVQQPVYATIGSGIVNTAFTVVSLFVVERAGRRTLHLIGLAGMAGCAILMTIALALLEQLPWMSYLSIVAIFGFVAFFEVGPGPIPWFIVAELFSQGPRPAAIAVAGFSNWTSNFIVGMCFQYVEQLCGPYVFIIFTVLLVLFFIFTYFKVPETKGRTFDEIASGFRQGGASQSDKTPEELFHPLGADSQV
# Assay: Indirect measurement of GLUT1 activity by quantification of intracellular ATP levels (glucose induced ATP increase)
# Format: cell-based
# Set-up: endogenous in cells; host or cells: DLD1 or CHO-K1
# Details: read-out: IC50 regarding glucose induced ATP increase (GLUT1 inhibition)
# Summary of the method: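 DLD1 or CHO-K1 cells were starved overnight in glucose-free medium with 1% FCS, then combined with an oxidative phosphorylation inhibitor. GLUT1 activity was read as glucose-induced ATP increase, GLUT2 as fructose-induced. Intracellular ATP was quantified by CellTiter-Glo luminescence.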
row,Structure (SMILES),IC50 [nM]
1,Cc1c(NC(=O)c2cc(C(N)=O)nc3cccc(F)c23)c(C(F)(F)F)nn1Cc1ccc(F)cc1F [Example 1440],5.4
2,Cc1c(NC(=O)c2cc(C(N)=O)nc3cc(F)c(Cl)cc23)c(C(F)(F)F)nn1Cc1ccc(F)cc1F [Example 1441],6.5
3,Cc1c(NC(=O)c2cc(C(N)=O)nc3ccc(Br)cc23)c(C(F)(F)F)nn1Cc1ccc(F)cc1F [Example 1442],2
4,Cc1c(NC(=O)c2cc(C(N)=O)nc3cccc(F)c23)c(C(F)(F)F)nn1Cc1ccc(F)c(F)c1 [Example 1443],4
5,Cc1c(NC(=O)c2cc(C(N)=O)nc3cc(F)c(Cl)cc23)c(C(F)(F)F)nn1Cc1ccc(F)c(F)c1 [Example 1444],11.6
6,Cc1c(NC(=O)c2cc(C(N)=O)nc3ccc(Br)cc23)c(C(F)(F)F)nn1Cc1ccc(F)c(F)c1 [Example 1445],5.7
7,COc1cccc(Cn2nc(C(F)(F)F)c(NC(=O)c3cc(C(N)=O)nc4cc(F)c(Cl)cc34)c2C)c1 [Example 1446],1.9
8,COc1cccc(Cn2nc(C(F)(F)F)c(NC(=O)c3cc(C(N)=O)nc4cc(F)ccc34)c2C)c1 [Example 1447],23.2
9,COc1cccc(Cn2nc(C(F)(F)F)c(NC(=O)c3cc(C(N)=O)nc4ccccc34)c2C)c1 [Example 1448],6.9
10,COc1cccc(Cn2nc(C(F)(F)F)c(NC(=O)c3cc(C(N)=O)nc4cccc(F)c34)c2C)c1 [Example 1449],18.7
11,COc1cccc(Cn2nc(C(F)(F)F)c(NC(=O)c3cc(C(N)=O)nc4ccc(Br)cc34)c2C)c1 [Example 1450],2.3
12,COc1cccc(Cn2nc(C)c(NC(=O)c3cc(C(N)=O)nc4cccc(F)c34)c2C)c1 [Example 1451],8.5
13,COc1cccc(Cn2nc(C)c(NC(=O)c3cc(C(N)=O)nc4ccccc34)c2C)c1 [Example 1452],8.8
14,COc1cccc(Cn2nc(C)c(NC(=O)c3cc(C(N)=O)nc4cc(F)c(Cl)cc34)c2C)c1 [Example 1453],1.4
15,Cc1nn(Cc2cccc(C#N)c2)c(C)c1NC(=O)c1cc(C(N)=O)nc2cc(F)ccc12 [Example 1454],13.3
16,Cc1nn(Cc2cccc(C#N)c2)c(C)c1NC(=O)c1cc(C(N)=O)nc2ccccc12 [Example 1455],20.8
17,Cc1nn(Cc2cccc(C#N)c2)c(C)c1NC(=O)c1cc(C(N)=O)nc2cc(F)c(Cl)cc12 [Example 1456],1.5
18,Cc1nn(Cc2cccc(C#N)c2)c(C)c1NC(=O)c1cc(C(N)=O)nc2cccc(F)c12 [Example 1457],15.2
19,COc1cccc(Cn2nc(C)c(NC(=O)c3cc(C(N)=O)nc4ccc(Br)cc34)c2C)c1 [Example 1458],2.3
20,COc1cccc(Cn2nc(C)c(NC(=O)c3cc(C(N)=O)nc4cc(F)ccc34)c2C)c1 [Example 1459],9.8
21,Cc1nn(Cc2ccc(OC(F)(F)F)cc2)c(C)c1NC(=O)c1cc(C(N)=O)nc2ccccc12 [Example 1460],1.9
22,Cc1nn(Cc2ccc(OC(F)(F)F)cc2)c(C)c1NC(=O)c1cc(C(N)=O)nc2cc(F)ccc12 [Example 1461],8.7

row,Structure (SMILES),IC50 [nM]
1,Cc1nn(Cc2ccc(OC(F)(F)F)cc2)c(C)c1NC(=O)c1cc(C(N)=O)nc2cccc(F)c12 [Example 1462],2.9
2,Cc1nn(Cc2ccc(OC(F)(F)F)cc2)c(C)c1NC(=O)c1cc(C(N)=O)nc2cc(F)c(Cl)cc12 [Example 1463],4.1
3,Cc1nn(Cc2ccc(OC(F)(F)F)cc2)c(C)c1NC(=O)c1cc(C(N)=O)nc2ccc(Br)cc12 [Example 1464],5.5
4,Cc1c(NC(=O)c2cc(C(N)=O)nc3ccccc23)c(C(F)(F)F)nn1Cc1ccc(OC(F)(F)F)cc1 [Example 1465],5.1
5,Cc1c(NC(=O)c2cc(C(N)=O)nc3cc(F)ccc23)c(C(F)(F)F)nn1Cc1ccc(OC(F)(F)F)cc1 [Example 1466],5.4
6,Cc1c(NC(=O)c2cc(C(N)=O)nc3cccc(F)c23)c(C(F)(F)F)nn1Cc1ccc(OC(F)(F)F)cc1 [Example 1467],7.6
7,Cc1c(NC(=O)c2cc(C(N)=O)nc3cc(F)c(Cl)cc23)c(C(F)(F)F)nn1Cc1ccc(OC(F)(F)F)cc1 [Example 1468],12.9
8,Cc1nn(Cc2ccc(F)c(F)c2)c(C)c1NC(=O)c1cc(C(N)=O)nc2ccc(Br)cc12 [Example 1469],5.5
9,Cc1nn(Cc2ccc(F)c(F)c2)c(C)c1NC(=O)c1cc(C(N)=O)nc2cc(F)ccc12 [Example 1470],2.8
10,Cc1nn(Cc2ccc(F)c(F)c2)c(C)c1NC(=O)c1cc(C(N)=O)nc2cccc(F)c12 [Example 1471],12.3
11,Cc1nn(Cc2ccc(F)c(F)c2)c(C)c1NC(=O)c1cc(C(N)=O)nc2cc(F)c(Cl)cc12 [Example 1472],0.9
12,Cc1cccc(Cn2nc(C)c(NC(=O)c3cc(C(N)=O)nc4cc(F)c(Cl)cc34)c2C)c1 [Example 1473],5.2
13,Cc1cccc(Cn2nc(C)c(NC(=O)c3cc(C(N)=O)nc4cc(F)ccc34)c2C)c1 [Example 1474],2.1
14,Cc1cccc(Cn2nc(C)c(NC(=O)c3cc(C(N)=O)nc4cccc(F)c34)c2C)c1 [Example 1475],8.4
15,Cc1cccc(Cn2nc(C)c(NC(=O)c3cc(C(N)=O)nc4cc(F)c(Cl)cc34)c2C)c1 [Example 1476],2.9
16,Cc1cccc(Cn2nc(C)c(NC(=O)c3cc(C(N)=O)nc4ccc(Br)cc34)c2C)c1 [Example 1477],4.3
17,Cc1cccc(Cn2nc(C(F)(F)F)c(NC(=O)c3cc(C(N)=O)nc4ccccc34)c2C)c1 [Example 1478],6.2
18,Cc1cccc(Cn2nc(C(F)(F)F)c(NC(=O)c3cc(C(N)=O)nc4cccc(F)c34)c2C)c1 [Example 1479],22.7
19,Cc1cccc(Cn2nc(C(F)(F)F)c(NC(=O)c3cc(C(N)=O)nc4cc(F)ccc34)c2C)c1 [Example 1480],10.5
20,Cc1cccc(Cn2nc(C(F)(F)F)c(NC(=O)c3cc(C(N)=O)nc4cc(F)c(Cl)cc34)c2C)c1 [Example 1481],5.5
21,Cc1cccc(Cn2nc(C(F)(F)F)c(NC(=O)c3cc(C(N)=O)nc4ccc(Br)cc34)c2C)c1 [Example 1482],5.3
22,Cc1nn(Cc2ccc(S(C)(=O)=O)cc2)c(C)c1NC(=O)c1cc(C(N)=O)nc2cc(F)ccc12 [Example 1483],48.8

row,Structure (SMILES),IC50 [nM]
1,Cc1nn(Cc2ccc(S(C)(=O)=O)cc2)c(C)c1NC(=O)c1cc(C(N)=O)nc2cccc(F)c12 [Example 1484],23.4
2,Cc1nn(Cc2ccc(S(C)(=O)=O)cc2)c(C)c1NC(=O)c1cc(C(N)=O)nc2cc(F)c(Cl)cc12 [Example 1485],5.3
3,Cc1nn(Cc2ccc(S(C)(=O)=O)cc2)c(C)c1NC(=O)c1cc(C(N)=O)nc2ccc(Br)cc12 [Example 1486],9.6
4,Cc1nn(Cc2ccc(F)cc2F)c(C)c1NC(=O)c1cc(C(N)=O)nc2cc(F)ccc12 [Example 1487],1.2
5,Cc1nn(Cc2ccc(F)cc2F)c(C)c1NC(=O)c1cc(C(N)=O)nc2cccc(F)c12 [Example 1488],6.8
6,Cc1nn(Cc2ccc(F)cc2F)c(C)c1NC(=O)c1cc(C(N)=O)nc2cc(F)c(Cl)cc12 [Example 1489],6
7,Cc1nn(Cc2ccc(F)cc2F)c(C)c1NC(=O)c1cc(C(N)=O)nc2ccc(Br)cc12 [Example 1490],3.7
8,COc1ccccc1Cn1nc(C(F)(F)F)c(NC(=O)c2cc(C(N)=O)nc3cc(F)c(Cl)cc23)c1C [Example 1491],41.5
9,COc1ccccc1Cn1nc(C(F)(F)F)c(NC(=O)c2cc(C(N)=O)nc3ccccc23)c1C [Example 1492],113
10,COc1ccccc1Cn1nc(C(F)(F)F)c(NC(=O)c2cc(C(N)=O)nc3cccc(F)c23)c1C [Example 1493],69.6
11,Cc1ccccc1Cn1nc(C(F)(F)F)c(NC(=O)c2cc(C(N)=O)nc3ccccc23)c1C [Example 1494],8.3
12,Cc1ccccc1Cn1nc(C(F)(F)F)c(NC(=O)c2cc(C(N)=O)nc3cc(F)ccc23)c1C [Example 1495],7.3
13,Cc1ccccc1Cn1nc(C(F)(F)F)c(NC(=O)c2cc(C(N)=O)nc3cccc(F)c23)c1C [Example 1496],6.2
14,Cc1ccccc1Cn1nc(C(F)(F)F)c(NC(=O)c2cc(C(N)=O)nc3cc(F)c(Cl)cc23)c1C [Example 1497],4.3
15,Cc1c(NC(=O)c2cc(C(N)=O)nc3ccc(Br)cc23)c(C(F)(F)F)nn1Cc1ccc(OC(F)(F)F)cc1 [Example 1498],8
16,CCc1nc(Cn2nc(C)c(NC(=O)c3cc(C(F)(F)F)nc4ccc(Br)cc34)c2C)no1 [Example 1499],13.4
17,CCc1nc(Cn2nc(C)c(NC(=O)c3cc(C(N)=O)nc4ccccc34)c2C)no1 [Example 1500],20.1
18,Cc1nn(Cc2nc(C3CC3)no2)c(C)c1NC(=O)c1cc(C(N)=O)nc2ccccc12 [Example 1501],73.7
19,Cc1nn(Cc2nc(C3CC3)no2)c(C)c1NC(=O)c1cc(C(F)(F)F)nc2ccc(Br)cc12 [Example 1502],213
20,Cc1cc(Cn2nc(C)c(NC(=O)c3cc(C(N)=O)nc4ccccc34)c2C)no1 [Example 1503],93.2
21,Cc1nn(Cc2ncco2)c(C)c1NC(=O)c1cc(C(N)=O)nc2ccccc12 [Example 1504],42.4
